Laboratory results reported in PubChem BioAssay AID1919014 (Molecular Pharmacology Branch, DTP, NCI, 2023).

Tested on: NCI-H1341 complex spheroids, percent test/control
Assay: Anticancer human tumor NCI-H1341 cell line growth inhibition [AhR];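 note: spheroids exposed to agents for seven days before readout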
Settings: for IC50: curve of first compound; for viability, T/C: stronger effect = lower value
Summary of the method: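 Complex tumor spheroids co-cultured with HUVEC and human MSC stroma; AhR antagonists tested in combination with standard-of-care and investigational agents. Top concentration at or near clinical Cmax (else 10 microM), half-log dilutions; growth expressed as percent test/control.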

What does the source list for `CC1(C)CCC(CN2CCN(c3ccc(C(=O)NS(=O)(=O)c4ccc(NCC5CCOCC5)c([N+](=O)[O-])c4)c(Oc4cnc5[nH]ccc5c4)c3)CC2)=C(c2ccc(Cl)cc2)C1` + CC(CO)NC(=O)c1cc(-c2ccc(Cl)cc2)nn(-c2cnn(C)c2)c1=O?
IC50 (second compound 0.1 µM): 2370 nM; IC50 (second compound 0.316 µM): 2150 nM; IC50 (second compound 1 µM): 1710 nM; IC50 (second compound 3.16 µM): 1810 nM; IC50 (second compound 10 µM): 1240 nM; viability, T/C (second compound 0.1 µM, first compound 0.0316 µM): 66.6%; viability, T/C (second compound 0.1 µM, first compound 0.1 µM): 74.9%; viability, T/C (second compound 0.1 µM, first compound 0.316 µM): 71.8%; viability, T/C (second compound 0.1 µM, first compound 1 µM): 71.1%; viability, T/C (second compound 0.1 µM, first compound 3.16 µM): 43%; viability, T/C (second compound 0.1 µM, first compound 10 µM): 12.9%; viability, T/C (second compound 0.316 µM, first compound 0.0316 µM): 76.7%; viability, T/C (second compound 0.316 µM, first compound 0.1 µM): 76.5%; viability, T/C (second compound 0.316 µM, first compound 0.316 µM): 72.3%; viability, T/C (second compound 0.316 µM, first compound 1 µM): 63.8%; viability, T/C (second compound 0.316 µM, first compound 3.16 µM): 43.1%; viability, T/C (second compound 0.316 µM, first compound 10 µM): 11.7%; viability, T/C (second compound 1 µM, first compound 0.0316 µM): 83.4%; viability, T/C (second compound 1 µM, first compound 0.1 µM): 74.4%; viability, T/C (second compound 1 µM, first compound 0.316 µM): 65.1%; viability, T/C (second compound 1 µM, first compound 1 µM): 61.4%; viability, T/C (second compound 1 µM, first compound 3.16 µM): 41.4%; viability, T/C (second compound 1 µM, first compound 10 µM): 11.3%; viability, T/C (second compound 3.16 µM, first compound 0.0316 µM): 76.5%; viability, T/C (second compound 3.16 µM, first compound 0.1 µM): 88.8%; viability, T/C (second compound 3.16 µM, first compound 0.316 µM): 83.8%; viability, T/C (second compound 3.16 µM, first compound 1 µM): 63%; viability, T/C (second compound 3.16 µM, first compound 3.16 µM): 36.5%; viability, T/C (second compound 3.16 µM, first compound 10 µM): 12.4%; viability, T/C (second compound 10 µM, first compound 0.0316 µM): 65.7%; viability, T/C (second compound 10 µM, first compound 0.1 µM): 84.7%; viability, T/C (second compound 10 µM, first compound 0.316 µM): 65.6%; viability, T/C (second compound 10 µM, first compound 1 µM): 54.1%; viability, T/C (second compound 10 µM, first compound 3.16 µM): 30.2%; viability, T/C (second compound 10 µM, first compound 10 µM): 9.65%
